Experimental data: ChEMBL document CHEMBL1128098, “Synthesis and serotonin receptor binding properties of 5-substituted 3-(1,2,5,6-tetrahydropyridin-3-yl) indoles” (Bioorg Med Chem Lett, 1995)

Key:
[1] = biological target: T1, 5-hydroxytryptamine receptor 1A (Rattus norvegicus, UniProt P19327); assay: Binding affinity to 5-hydroxytryptamine 1A receptor using [3H]8-OH-DPAT radioligand assay.
T1 sequence (P19327 whole entry): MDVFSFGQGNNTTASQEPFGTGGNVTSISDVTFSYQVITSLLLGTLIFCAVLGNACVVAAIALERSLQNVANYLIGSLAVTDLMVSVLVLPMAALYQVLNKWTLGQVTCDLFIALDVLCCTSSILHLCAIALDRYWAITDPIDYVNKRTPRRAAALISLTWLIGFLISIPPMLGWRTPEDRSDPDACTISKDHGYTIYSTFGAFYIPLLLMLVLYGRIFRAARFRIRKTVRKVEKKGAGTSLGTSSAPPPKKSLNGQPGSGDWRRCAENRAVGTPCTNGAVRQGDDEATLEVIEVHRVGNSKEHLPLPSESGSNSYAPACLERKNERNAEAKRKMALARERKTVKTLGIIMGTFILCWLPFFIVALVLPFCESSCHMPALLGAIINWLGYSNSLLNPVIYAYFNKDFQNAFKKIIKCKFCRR

[2] = biological target: Serotonin 2 (5-HT2) receptor (Rattus norvegicus, UniProt P30994+P08909+P14842); assay: Binding affinity to 5-hydroxytryptamine 2 receptor using [3H]ketanserin radioligand assay.; assay type: protein assay

SMILES	Ki [1] [nM]	Ki [2] [nM]
CCCN1CCC=C(c2c[nH]c3ccc(C(=O)OC)cc23)C1	214	> 50000
CCCN1CCC=C(c2c[nH]c3ccc(C#N)cc23)C1	303	958
CCCN1CCC=C(c2c[nH]c3ccccc23)C1	556	146
COc1ccc2[nH]cc(C3=CCCN(C)C3)c2c1	79	716
CCCN1CCC=C(c2c[nH]c3ccc(Br)cc23)C1	192	139
COC(=O)c1ccc2[nH]cc(C3=CCCN(C)C3)c2c1	102	5360
CC(=O)Nc1ccc2[nH]cc(C3=CCCN(C)C3)c2c1	16	14536
CN1CCC=C(c2c[nH]c3ccc(Br)cc23)C1	50	82
CN1CCC=C(c2c[nH]c3ccc(C(N)=O)cc23)C1	3.8	> 10000
CCN1CCC=C(c2c[nH]c3ccc(Cl)cc23)C1	47	150
Cc1ccc2[nH]cc(C3=CCCN(C)C3)c2c1	72	194
CN1CCC=C(c2c[nH]c3ccc(O)cc23)C1	145	237
CC(=O)c1ccc2[nH]cc(C3=CCCN(C)C3)c2c1	91	3383
COc1ccc2[nH]cc(C3=CCCNC3)c2c1	5.7	230
CN1CCC=C(c2c[nH]c3ccc(C#N)cc23)C1	129	1035
CCN1CCC=C(c2c[nH]c3ccc(C#N)cc23)C1	186	1360
CCCN1CCC=C(c2c[nH]c3ccc(OC)cc23)C1	226	1070
CN1CCC=C(c2c[nH]c3ccc(F)cc23)C1	124	43
CN1CCC=C(c2c[nH]c3ccc(Cl)cc23)C1	113	107
CCN1CCC=C(c2c[nH]c3ccc(F)cc23)C1	142	67
CCCN1CCC=C(c2c[nH]c3ccc(NC(C)=O)cc23)C1	205	> 50000
CCCN1CCC=C(c2c[nH]c3ccc(C(N)=O)cc23)C1	4.7	19152
CN1CC[C@@H]2CCc3[nH]c4ccccc4c3[C@H]2C1	2360	325
CCN1CCC=C(c2c[nH]c3ccc(Br)cc23)C1	24	125
CCN1CCC=C(c2c[nH]c3ccc(C)cc23)C1	42	246
CN1CCC=C(c2c[nH]c3ccccc23)C1	261	139
CCN1CCC=C(c2c[nH]c3ccc(OC)cc23)C1	71	1130
CCN1CCC=C(c2c[nH]c3ccccc23)C1	213	165
